Test system: ER-positive MCF7 human breast cancer cells
Assay: MCF7 cell proliferation assay
Type: cell-based
Conditions: MCF7, 120 h, read-out: Cell Proliferation EC50

- EC50: 3.2 pM
SMILES: C[C@]12CC[C@@H]3c4ccc(O)cc4CC[C@H]3[C@@H]1CC[C@@H]2O [E2, 17β-estradiol]

Source: paper PMC12340639 (ACS Pharmacology & Translational Science, 2025)
